Experimental data taken from US10987059B2, “Electronic scaffold and uses thereof” (Ramot at Tel-Aviv University Ltd., priority 2013, dated 2021).

Legend:
[1] = system: neonatal rat ventricular cardiomyocytes; test: Action potentials recorded from the engineered (cyborg) tissue before and after adding a stimulating drug; format: cell-based; settings: 100 nM in growth medium, 15 minutes incubation; single electrode; device with albumin fibrous scaffold; before vs after drug
Description: After the device was incubated for a time period that allows tissue generation, the obtained cyborg tissue was connected to the pre-amplifier and monitored through the computer, using a system as exemplified in FIG. 8. This allows monitoring the progress of tissue formation as well as studying the influence of different conditions and substances on the tissue, an approach that could replace animal drug testing and make it easier and simpler.
At the time of the recording, the device was connected to a ME64-FAI-MPA-System by multichannel systems (Germany). Action potentials were recorded using the MC rack software which allows recording over multiple electrodes simultaneously.
After action potentials were recorded, 100 nM of noradrenaline was added to the growth medium and the device was allowed to incubate for 15 minutes after which the device was reconnected and action potentials were again recorded.

[2] = poly(2-acrylamido-2-methylpropane sulfonic acid-co-n-butylmethacrylate) scaffold; PBS medium; optical density at 462
Description: The release profile of dopamine from device polymeric element made of a positive electro-responsive polymer as described herein was measured as follows:
Disc shaped preloaded slices of formed hydrogel (2-3 mm) were placed between two Graphite electrodes (1 cm apart) in a plastic culture plate. The electrodes were connected to a stimulus generator (STG-4002 multichannel systems, Germany), and the plate was filled with a medium of PBS (0.35 ml). A DC pulse of different intensities (0-8 volt) and different durations (0-15 minutes) was supplied.
Nano-Drop spectrophotometer (ND-1000 spectrophotometer, Thermo scientific, Wilmington Del. U.S.A) at a wave length of 462 was used to examine the light absorbance of the medium. The relation between the light absorbance and the concentration is given by Beer-Lambert as a linear equation: A=εlc
wherein A is the light absorbance, l is the length of the light through the sample [m], C is the concentration in [M], and ε is the molar absorptivity [m^−1M^−1].

[3] = Release profile of SSA from polypyrrole hydrogel scaffold upon voltage application; format: physicochemical; settings: absorbance at 280 nm
Description: Pyrrole was […] in a 10-mL one-compartment cell, using an electrochemical workstation under computer control. The gold-based microelectrodes, prepared as described in Example 1 hereinabove, were used as working electrodes. The counter electrode was platinum wire and the reference electrode was a saturated calomel electrode (SCE). The electrolyte was an aqueous solution (100 ml) containing 0.2 M pyrrole (1.39 ml) and 0.2 M sulfosalicylic acid (5.08 grams), which was degassed by nitrogen stream before polymerization was effected. The SSA-doped PPy films (PPy-SSA) were prepared on the gold microelectrodes by galvanostatic polymerization using a current density of 2.5 mA/cm^2 for 800 seconds. The as-prepared PPy-SSA films were rinsed with de-ionized water and dried in air at room temperature. A second layer was thereafter deposited by using an aqueous solution (100 ml) of 0.2 M pyrrole and 0.1 M NaCl (0.5844 grams), subjected to a galvanostatic polymerization with a current density of 2 mA/cm^2 for 500 seconds.

With `NC[C@H](O)c1ccc(O)c(O)c1` [Noradrenalin] the “frequency of the action potentials” value [1] was “increased”.

For `NCCc1ccc(O)c(O)c1` [dopamine], the “drug release rate, voltage on vs off” value [2] was “much higher drug release rate when voltage is applied (on) than when it is not applied (off)”.

For `O=C(O)c1cc(S(=O)(=O)O)ccc1O` [SSA, Sulfosalicylic acid], the “drug release, voltage on vs off” value [3] was “When voltage is applied the drug is released into the polymer's vicinity and when voltage application is discontinued drug release ceases”.
